Test [1] deals with P. aeruginosa (ATCC 27853). Put plainly: Antibacterial activity, MIC50 by resazurin fluorometric measurement. Format: cell-based. Conditions: Pseudomonas aeruginosa, ATCC27853; means of triplicate assays. Here is the method: (§1) Obtained compounds (2a–2j) were evaluated for antibacterial activity against Escherichia coli (E. coli) (ATCC 25922), Pseudomonas aeruginosa (P. aeruginosa) (ATCC 27853), […] (E. faecalis) (ATCC 2942), Bacillus subtilis (B. subtilis) (ATCC 6051), Staphylococcus aureus (S. aureus) (ATCC 29213), and Staphylococcus epidermidis (S. epidermidis) (ATCC 12228). MIC50 values were determined via fluorometric measurements, using resazurin solution.[13] Azithromycin was used as a standard drug in the antibacterial activity test.
(§2) The antimicrobial activity of obtained derivatives (2a–2j) was screened on six bacterial and three fungal strains according to the standard procedure of CLSI[20] as described in the previous study.[21] The antibacterial activities of the obtained compounds were screened against B. subtilis (ATCC 6051), E. coli (ATCC 25922), E. faecalis (ATCC 2942), P. aeruginosa (ATCC 27853), S. aureus (ATCC 29213), and S. epidermidis (ATCC 12228). The obtained compounds were evaluated for anticandidal activity against C. albicans (ATCC 24433), C. krusei (ATCC 6258), and C. parapsilopsis (ATCC 22019). For antibacterial activity, azithromycin was utilized as a reference drug, whereas voriconazole and fluconazole were used for anticandidal activity.
(In general: Resazurin is reduced to fluorescent resorufin, in cell work by metabolically active cells.)

Another test deals with B. subtilis (ATCC 6051). The description is as above. Format: cell-based. The note with it: Bacillus subtilis, ATCC6051; means of triplicate assays. How it is done:
as §1, §2

The next test has as its system E. coli (ATCC 25922). Described as above. Format: cell-based. Conditions: Escherichia coli, ATCC25922; means of triplicate assays. Here is the method:
as §1, §2

The test system of another test is C. krusei (ATCC 6258). Nature of the test: Anticandidal activity, MIC50 by resazurin fluorometric measurement. Format: cell-based, Candida krusei. Here is the method:
(§3) Obtained compounds (2a–2j) were evaluated for anticandidal activity against Candida albicans (C. albicans) (ATCC 24433), Candida krusei (C. krusei) (ATCC 6258), and Candida parapsilopsis (C. parapsilopsis) (ATCC 22019). MIC50 values were determined via fluorometric measurements, using resazurin solution.[13] Voriconazole and fluconazole were used as a standard drug in the anticandidal activity test. […] In general, it is seen that the 2-methoxyethyl substituent increases the anticandidal activity.
as §2

Another test deals with C. albicans (ATCC 24433). The test is described as above. Format: cell-based, Candida albicans. How it is done: as §3, §2
Test [2] concerns A549 cell line. Nature of the test: Analysis of mitochondrial membrane potential (MMP) by flow cytometry, JC-1 dye. The note with it: A549, IC50 concentration, 24-h incubation. The class given is cell-based. (A flow cytometer gives signals particle by particle.)
Description: After a 24-h incubation period, mitochondrial membrane potential was measured with JC-1 dye.
The BD Mitoscreen Mitochondrial Membrane Potential Detection JC-1 Kit (available from ref ([23])) was used for the MMP test. First, A549 cells were seeded in 25 mL flasks and incubated for 24 h in a 5% CO2 incubator. […] At the end of this period, cells were collected and centrifuged in accordance with the kit contents. After the upper part was removed, JC-1 dye was added and incubated at 37 °C for 10–15 min. At the end of the period, it was washed 2 times with washing solution and reading was done with the appropriate procedure using the CytoFLEX Flow Cytometer (Beckman Coulter Life Sciences, USA) and CytExpert for CytoFLEX Acquisition and Analysis Software Version 2.2.0.97.
In another test the target is T1, VEGFR-2 enzyme (Homo sapiens, UniProt P35968).
T1 construct: purchased
T1 sequence (P35968 20-1356): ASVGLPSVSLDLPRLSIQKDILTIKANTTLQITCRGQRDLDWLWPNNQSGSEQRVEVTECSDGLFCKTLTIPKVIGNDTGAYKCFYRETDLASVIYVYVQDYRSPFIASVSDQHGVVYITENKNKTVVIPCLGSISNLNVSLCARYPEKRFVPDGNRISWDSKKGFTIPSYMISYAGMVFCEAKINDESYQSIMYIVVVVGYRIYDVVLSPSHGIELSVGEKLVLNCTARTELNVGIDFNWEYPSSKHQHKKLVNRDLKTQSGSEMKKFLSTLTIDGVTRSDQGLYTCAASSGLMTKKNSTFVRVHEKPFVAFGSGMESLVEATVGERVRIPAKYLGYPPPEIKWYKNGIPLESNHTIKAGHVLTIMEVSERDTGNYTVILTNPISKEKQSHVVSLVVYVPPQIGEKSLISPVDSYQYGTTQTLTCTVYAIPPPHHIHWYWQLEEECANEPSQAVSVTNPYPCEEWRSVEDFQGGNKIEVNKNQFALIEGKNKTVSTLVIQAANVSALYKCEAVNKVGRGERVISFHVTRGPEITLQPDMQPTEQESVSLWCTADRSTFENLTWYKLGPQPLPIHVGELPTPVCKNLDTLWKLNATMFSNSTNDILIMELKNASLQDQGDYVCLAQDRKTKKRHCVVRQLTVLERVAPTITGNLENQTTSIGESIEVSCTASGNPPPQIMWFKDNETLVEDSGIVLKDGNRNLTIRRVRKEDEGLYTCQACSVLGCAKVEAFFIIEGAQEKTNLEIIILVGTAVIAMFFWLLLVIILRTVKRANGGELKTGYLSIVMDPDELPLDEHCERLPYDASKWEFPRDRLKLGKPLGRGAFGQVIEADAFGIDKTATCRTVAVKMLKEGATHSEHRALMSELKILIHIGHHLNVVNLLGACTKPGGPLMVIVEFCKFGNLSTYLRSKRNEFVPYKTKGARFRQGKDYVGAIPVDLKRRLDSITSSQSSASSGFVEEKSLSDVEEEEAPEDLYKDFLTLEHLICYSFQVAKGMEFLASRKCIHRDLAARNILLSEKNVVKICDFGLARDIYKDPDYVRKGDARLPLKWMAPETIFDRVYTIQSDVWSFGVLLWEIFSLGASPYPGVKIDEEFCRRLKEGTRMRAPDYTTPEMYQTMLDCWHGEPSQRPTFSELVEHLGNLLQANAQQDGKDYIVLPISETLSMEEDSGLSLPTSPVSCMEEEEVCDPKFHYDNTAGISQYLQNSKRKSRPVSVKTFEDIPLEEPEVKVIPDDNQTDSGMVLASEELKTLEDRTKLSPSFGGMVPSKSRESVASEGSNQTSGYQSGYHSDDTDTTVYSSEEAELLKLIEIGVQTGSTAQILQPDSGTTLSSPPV
Put plainly: VEGFR-2 inhibition assay (VEGFR-2 Kinase Assay Kit). The note with it: serial 11 dilutions, 1000 μM–0.01 μM. The class given is biochemical. How it is done:
The VEGFR-2 Kinase Assay Kit (Available from ref ([15])) was used for the VEGFR-2 inhibition. The experiment was performed in vitro according to the kit procedure. Serial 11 dilutions of compound 2j were prepared at concentrations of 1000 μM–0.01 μM. The IC50 value for compound 2j was calculated using the kit procedure.
The VEGFR-2 Kinase Assay Kit (available from ref ([15])) was used for the VEGFR-2 inhibition. The experiment was performed in vitro according to the kit procedure.

The subject of test [3] is carcinogenic cell lines. Put plainly: Flow cytometric analysis of apoptosis and necrosis (Apoptosis, Necrosis and Healthy Cell Quantitation Kit Plus). The class given is cell-based. Conditions: IC50 concentration, 24-h incubation.
Test [4] deals with carcinogenic cell lines. The test is described as above. Format: cell-based. The note with it: IC50 concentration, 24-h incubation. An excerpt: The flow cytometer was used to calculate the percentages of apoptotic and necrotic cells in four different quadrants, which are denoted by the letters “UL, UR, LL, LR” (Upper Left, Upper Right, Lower Left, Lower Right). The four distinct quadrants in the diagram represent the following areas, respectively: Apoptotic or early apoptotic cells, LR: CF488A+/(EthD-III)-; necrotic or late apoptotic cells, […]: CF488A+/(EthD-III)+; intact cells, LL: CF488A/(EthD-III); and dead or necrotic cells, UR: CF488A+/(EthD-III)+. The IC50 concentration of each substance was used in administration.
Death pathway of the carcinogenic cell lines was detected by Apoptosis, Necrosis and Healthy Cell Quantitation Kit Plus (Cat: 30066, Biotium, Hayward, CA, USA)[22] as reported in the manufacturer’s instruction. The IC50 values for doxorubicin and compound 2j were applied. Cells were collected by centrifugation at 1200 rpm for 5 min following a 24-h incubation period. It was washed 2 times with PBS, centrifuged and turned into pellets. One ×10^6 cells/mL of annexin were suspended in V-FITC binding buffer. Ethidium iodide ([…]), Hoestch 1 mL, and annexin V-FITC ([…]) were added to stain cells and using the CytoFLEX Flow Cytometer (Beckman Coulter Life Sciences, USA) and CytExpert for CytoFLEX Acquisition and Analysis Software Version 2.2.0.97 instrument. Fluorescence measurements were made using a flow cytometer in accordance with the instrument procedure.
This is another data set of the same source.

In test [5] the test system is C. parapsilopsis (ATCC 22019). Nature of the test: Anticandidal activity, MIC50 by resazurin fluorometric measurement. Conditions: Candida, ATCC22019; means of triplicate assays. The class given is cell-based, Candida parapsilopsis. Here is the method:
as §3, §2

Test [6] concerns healthy mouse fibroblast cell (NIH3T3). Put plainly: MTT cytotoxicity test on healthy cells. Format: cell-based. The note with it: 24-h treatment, means of quartet assays ± SEM. How it is done:
(§4) The MTT test was performed using 3 different cell lines for calculated IC50 values of obtained compounds. […] For this purpose, the cytotoxic effects of the compounds against the healthy mouse fibroblast cell (NIH3T3) were investigated.
(§5) The 3-(4,5-dimethylthiazol-2-yl)-2,5-diphenyltetrazolium salt reduction method, or MTT assay, is used to measure the metabolic activity of live cells. […] Doxorubicin is used as a therapeutic drug. MTT assays were carried out as previously explained.[19]
Background: Tetrazolium assays rely on reduction of a dye to a coloured formazan, in cell work by metabolically active cells.

In test [7] the test system is S. epidermidis (ATCC 12228). Nature of the test: Antibacterial activity, MIC50 by resazurin fluorometric measurement. The class given is cell-based, Staphylococcus epidermidis. Here is the method: as §1, §2
The test system of a further test is E. faecalis (ATCC 2942). The test is described as above. Format: cell-based, Enterococcus faecalis. Here is the method:
as §1, §2

In the next test the test system is S. aureus (ATCC 29213). Described as above. The class given is cell-based, Staphylococcus aureus. Here is the method: as §1, §2
In test [8] the test system is A549 cell line. Nature of the test: MTT cytotoxicity test. Conditions: for IC50: MTT, 24-h treatment, means of quartet assays ± SEM. The class given is cell-based. Here is the method: as §4, §5
Another test deals with HepG2 cell line. Nature of the test: MTT cytotoxicity test. Format: cell-based. Conditions: Homo sapiens, 24-h treatment, means of quartet assays ± SEM. Here is the method: as §4, §5

Values after ≈ are worked out from the molar mass of the structure shown. Values joined by “and” are separate entries in the source; they are usually repeats but may differ in a detail not shown here. Equal entries are not always repeated.

The MIC50 is an inhibitory concentration at the 50% level, which refers to growth in some studies and to a panel of isolates in others. As usually defined, the IC50 is the point on the concentration scale where inhibition reaches its midpoint. Higher therefore signals weaker potency. For the compound `COCCN1CCN(c2ccc(C(=O)C=Cc3ccc4ccccc4c3)cc2)CC1` [2j, 1-(4-(4-(2-Methoxyethyl)piperazin-1-yl)phenyl)-3-(naphthalen-2-yl)prop-2-en-1-one], the MIC50 in test [1] is 62.5 µg/mL (≈ 156 µM); in the test on B. subtilis (ATCC 6051), > 100 µg/mL; with E. coli (ATCC 25922) it was > 100 µg/mL; against C. krusei (ATCC 6258) (Pichia kudriavzevii, ATCC6258, means of triplicate assays), 15.6 µg/mL (≈ 39 µM); in the test on C. albicans (ATCC 24433) (Candida albicans, ATCC24433, means of triplicate assays), 15.6 µg/mL (≈ 39 µM); in test [5], > 100 µg/mL. Moreover, the MIC50 is 31.2 µg/mL (≈ 78 µM) in test [7] (Staphylococcus epidermidis, ATCC12228, means of triplicate assays, read-out: MIC50 S. epidermis); 15.6 µg/mL (≈ 38.9 µM) against E. faecalis (ATCC 2942) (Enterococcus faecalis, ATCC2942, means of triplicate assays); 31.2 µg/mL (≈ 78 µM) against S. aureus (ATCC 29213) (Staphylococcus aureus, ATCC29213, means of triplicate assays). Moreover, in the test on C. krusei (ATCC 6258) (means of triplicate assays), the “MIC50 C. krusei” value was 15.6 µg/mL (≈ 38.9 µM). In the test on C. albicans (ATCC 24433) (means of triplicate assays), the “MIC50 C. albicans” value is 15.6 µg/mL (≈ 38.9 µM). In addition, in the test with A549 cell line [2], the “mitochondrial membrane potential (P3)” value is reported as 58.870%. Also, the IC50 at VEGFR-2 enzyme was 0.098 ± 0.005 µM; in test [6] it was 15.6 ± 0.75 µM; in the test on A549 cell line [8] (Homo sapiens, A549, 24 h) it was < 10 µM; in the test with A549 cell line [8], 7.8 µM and 7.83 µM; in the test with HepG2 cell line, 38.9 ± 1.34 µM. In addition, in the test with carcinogenic cell lines [3], the “late apoptosis (Q1-UR)” value was 10.26% and 10.3%. In the test on carcinogenic cell lines [4], the “early apoptosis (Q1-LR)” value came to 3.97%. In the test on carcinogenic cell lines [4], the “intact cells (Q1-LL)” value was determined as 67.71%. Besides, the “necrosis (Q1-UL)” value in the test with carcinogenic cell lines [4] was 18.06% and 18.1%. Moreover, in the test on carcinogenic cell lines [4], the “rate of apoptosis (early + late apoptosis)” value was 14.230% and 14.2%. Besides, the “MIC50 S. epidermis” value in [7] (means of triplicate assays) came to 31.3 µg/mL (≈ 78.1 µM). For the same compound, the “MIC50 E. faecalis” value with E. faecalis (ATCC 2942) (means of triplicate assays) is 15.7 µg/mL (≈ 39.2 µM). For the same compound, the “MIC50 S. aureus” value against S. aureus (ATCC 29213) (means of triplicate assays) was 31.3 µg/mL (≈ 78.1 µM). In the test with A549 cell line [8] (NIH3T3 vs A549 cell line), the “selectivity index (IC50 value vs healthy cell/IC50 value vs cancer cell)” value is 1.990.

As to `COc1cccc2c1C(=O)c1c(O)c3c(c(O)c1C2=O)C[C@@](O)(C(=O)CO)C[C@@H]3O[C@H]1C[C@H](N)[C@H](O)[C@H](C)O1` [SD4, Doxorubicin, reference compound], the “mitochondrial membrane potential (P3)” value with A549 cell line [2] was determined as 30.270%. Also, the “late apoptosis (Q1-UR)” value in the test with carcinogenic cell lines [3] stood at 8.84%. In the test with carcinogenic cell lines [4], the “early apoptosis (Q1-LR)” value was 8.55%, the “intact cells (Q1-LL)” value was 80.85%, the “necrosis (Q1-UL)” value is 1.76% and the “rate of apoptosis (early + late apoptosis)” value is 17.4%. Further, the IC50 in test [6] is > 100 µM. The compound also registered an IC50 in the test on A549 cell line [8] (Homo sapiens, A549, 24 h) of 2.97 ± 0.16 µM. Moreover, in the test on HepG2 cell line, the IC50 turned out to be 9.47 ± 1.49 µM.

The values are drawn from paper PMC9947975, “Design, Synthesis, and Biological Evaluation Studies of Novel Naphthalene-Chalcone Hybrids As Antimicrobial, Anticandidal, Anticancer, and VEGFR-2 Inhibitors” (ACS Omega, 2023).
